# According to ChEMBL document CHEMBL1151154, “Potential inhibitors of platelet aggregation from plant sources, V. Anthraquinones from seeds of Cassia obtusifolia and related compounds” (1990):
# Experiments:
# Type in all cases: functional
# [1] = Antiplatelet activity in rat platelet rich plasma assessed as drug level causing inhibition of arachidonic acid-stimulated platelet aggregation pretreated 2 mins before arachidonic acid challenge
# [2] = Antiplatelet activity in rat platelet rich plasma assessed as drug level causing inhibition of ADP-stimulated platelet aggregation pretreated 2 mins before ADP challenge
# [3] = Antiplatelet activity in rat platelet rich plasma assessed as drug level causing inhibition of collagen-stimulated platelet aggregation pretreated 2 mins before collagen challenge
SMILES,Activity [1] [mg/mL],Activity [2] [mg/mL],Activity [3] [mg/mL]
Cc1cc(O)c2c(c1)C(=O)c1cc(O)cc(O)c1C2=O [EMODIN],>0.25,>0.25,>0.25
COc1c(O)c(C)cc2c1C(=O)c1c(O)cccc1C2=O [OBTUSIFOLIN],0.25,>0.25,0.25
Cc1cc(O)c2c(c1)C(=O)c1cccc(O)c1C2=O [CHRYSOPHANOL],>0.25,>0.25,>0.25
O=C1c2ccccc2C(=O)c2c1ccc(O)c2O [ATHRAQUINONES A],>0.25,>0.25,>0.25
Cc1cc(O)c2c(c1)Cc1cccc(O)c1C2=O,>0.25,>0.25,>0.25
COc1c(O)cc2c(c1O)C(=O)c1c(cc(C)c(O)c1OC)C2=O [AURANTIOOBTUSIN],>0.25,>0.25,>0.25
COc1c(O[C@@H]2O[C@H](CO)[C@@H](O)[C@H](O)[C@H]2O)cc2c(c1O)C(=O)c1c(cc(C)c(O)c1OC)C2=O,0.05,0.05,0.1
COc1cc2c(c(OC)c1OC)C(=O)c1c(cc(C)c(O)c1OC)C2=O [CHRYSOOBTUSIN],0.25,0.25,0.25
O=C1c2ccccc2C(=O)c2c(O)ccc(O)c21 [QUINIZARIN],>0.25,>0.25,>0.25
O=C1c2cccc(O)c2C(=O)c2c(O)cccc21 [DANTHRON],>0.25,>0.25,>0.25
COc1cc(O)c2c(c1)C(=O)c1cc(C)cc(O)c1C2=O [PHYSCION],0.25,0.25,>0.25
O=C1c2cccc(O)c2C(=O)c2c(O)cc(CO)cc21 [ALOE-EMODIN],0.25,>0.25,0.25
O=C(O)c1cc(O)c2c(c1)C(=O)c1cccc(O)c1C2=O [RHEIN],0.25,0.25,0.25
COc1c(O[C@@H]2O[C@H](CO)[C@@H](O)[C@H](O)[C@H]2O)c(C)cc2c1C(=O)c1c(O)cccc1C2=O,0.05,0.25,0.1
O=C1c2ccc(O)cc2C(=O)c2ccc(O)cc21 [ANTHRAFLAVICACID],>0.25,>0.25,>0.25
COc1cc2c(c(OC)c1OC)C(=O)c1c(cc(C)c(O[C@@H]3O[C@H](CO)[C@@H](O)[C@H](O)[C@H]3O)c1OC)C2=O,0.025,0.025,0.05
